Patent US12215109B2, “Crystal of pyrazolo[3,4-d]pyrimidine” (TAIHO PHARMACEUTICAL CO., LTD., priority 2018, dated 2025)

Experiments:
Type in all cases: physicochemical
[1] = Dynamic moisture absorption/desorption test; conditions: 25° C., humidity 5% RH to 95% RH and back to 5% RH
Protocol: In the test, VTI-SA+(TA Instruments) was used. About 10 mg of crystal I was weighed, and put into a pan. The temperature was elevated at a rate of 1 degree per minute to 60° C. while observing the weight variation per 5 minutes of 0.0100% or less. When the weight varied, this temperature was maintained for a maximum of 5 hours, followed by starting the next step. Thereafter, the temperature was cooled to 25° C., and the humidity was increased from 5% RH to 95% RH, and then decreased to 5% RH. Here, the humidity was increased in increments of 5% RH while observing the weight variation per 5 minutes of 0.00100% or less. When the weight varied, this humidity was maintained for a maximum of 2 hours, followed by starting the next step.

[2] = Thermal stability test (X-ray powder diffraction under heating); conditions: XRPD at 25° C., 50° C., elevated to 200° C., then lowered to 25° C.
Protocol: A thermal stability test was conducted on Crystal I and Crystal III obtained in Example and Comparative Example described above. Crystal II was not reproduced, and it was not possible to conduct a thermal stability test.
X-ray powder diffraction measurement was performed at 25° C., and the temperature was elevated to 50° C. over 30 minutes, followed by performing X-ray powder diffraction measurement. The temperature was further elevated to 200° C. at 10° C./10 min, followed by performing X-ray powder diffraction measurement, then the temperature was lowered to 25° C. over 30 minutes, followed by performing X-ray powder diffraction measurement.

[3] = Solid stability test (storage stability; XRPD, HPLC related substances, appearance); conditions: for Related substances: HPLC
Protocol: The storage stability of Crystal I obtained in Example above was examined under the following conditions. • Storage conditions: 40° C./[…] (open system and closed system), 60° C. (closed system), light shielding • Measurement point: 1 month • Storage amount: about 50 mg • Storage container: Brown glass bottle
X-ray powder diffraction measurement of the sample after storage was performed by the above-described method. For a change in mass of related substances (amount of detected substances other than Compound (I)), about 1 mg of the sample was weighed, and dissolved in about 5 mL of a water/acetonitrile mixed liquid (1:1), and 5 μL of the liquid was accurately measured and taken, and analyzed by HPLC in accordance with the following method. • Column: InertSustain C18 HP, 4.6×150 mm, 3 μm • Column temperature: 40° C. • Column flow rate: 0.8 mL/min • Mobile phase: A: 10 mM phosphate buffer (pH 6.8)/acetonitrile (17:3) and B: acetonitrile/methanol (17:3) • Detection UV: 220 nm • Gradient: […]

[4] = 40° C./75% RH (closed system), 1 month
[5] = 40° C./75% RH (open system), 1 month
[6] = 60° C. (closed system), 1 month
[7] = Light shielding (1,200,000 lx · hr)

## C=CC(=O)N1CCC[C@@H](n2nc(C(=O)Nc3ccc(CC(=O)N(C)C)c(C)c3C)c3c(N)ncnc32)C1 [Crystal I, (R)-1-(1-acryloylpiperidin-3-yl)-4-amino-N-(4-(2-(dimethylamino)-2-oxoethyl)-2,3-dimethylphenyl)-1H-pyrazolo[3,4-d]pyrimidine-3-carboxamide]
[1]
  hygroscopicity (moisture absorption/desorption isothermal line): non-hygroscopic
[2]
  change in crystal form under heating: no change in crystal form
[3]; [4]
  Appearance: No change
  Related substances: <0.1%
[3]; [5]
  Appearance: No change
  Related substances: <0.1%
[3]; [6]
  Appearance: No change
  Related substances: <0.1%
[3]; [7]
  Appearance: No change
  Related substances: <0.1%
[3]; storage 1 month, 40° C./75° RH (open and closed system), 60° C. (closed system), light shielding
  change in X-ray powder diffraction pattern after storage: no change in X-ray powder diffraction pattern

## C=CC(=O)N1CCC[C@@H](n2nc(C(=O)Nc3ccc(CC(=O)N(C)C)c(C)c3C)c3c(N)ncnc32)C1 [Crystal III, (R)-1-(1-acryloylpiperidin-3-yl)-4-amino-N-(4-(2-(dimethylamino)-2-oxoethyl)-2,3-dimethylphenyl)-1H-pyrazolo[3,4-d]pyrimidine-3-carboxamide]
[2]
  change in crystal form under heating: changed by heating
